Reference: US20050124665A1, “Pharmaceutical compositions” (priority 2001, published 2005)

How the values were obtained:
Sendai virus = experiment: Effect on the replication of Sendai virus (virus yield by HAU titration in 37RC cells); type: cell-based; settings: Respirovirus muris, in Primates; at 24 hours after infection; monkey kidney 37RC cells infected with SV (5 HAU/10^5 cells); virus yield in supernatant by HAU titration; read-out: ID50 (the 50% inhibitory dose/concentration)
Protocol: Methods: Monkey kidney 37RC cells were grown at 37° C. under the conditions described in Example 6 for T cells. The parainfluenza Sendai virus (SV) was grown in the allantoic cavity of 10-day-old embroynated eggs. Viral titre was expressed in haemagglutinating units (HAU) per ml; haemagglutin titration was done according to standard procedures using human 0 Rh+ erythrocytes, as described in C. Amici et al. (J. Virol. 68: 6890-6899, 1994). Confluent monolayers of 37RC cells were infected with SV virus (5 HAU/10^5 cells) for 1 h at 37° C., and then treated with different concentrations of test compounds. Virus yield at 24 hours after infection was determined in the supernatant of infected cells by HAU titration. The results from representative experiments are shown for CTC-73, 74, 83, 84 and 85 (as identified above) in FIGS. 1a, 2a, 3a, 4a and 5a, respectively.

HSF1 = target: T1, HSF1 (Homo sapiens, UniProt Q00613); settings: cited from earlier work
T1 sequence (Q00613 1-529): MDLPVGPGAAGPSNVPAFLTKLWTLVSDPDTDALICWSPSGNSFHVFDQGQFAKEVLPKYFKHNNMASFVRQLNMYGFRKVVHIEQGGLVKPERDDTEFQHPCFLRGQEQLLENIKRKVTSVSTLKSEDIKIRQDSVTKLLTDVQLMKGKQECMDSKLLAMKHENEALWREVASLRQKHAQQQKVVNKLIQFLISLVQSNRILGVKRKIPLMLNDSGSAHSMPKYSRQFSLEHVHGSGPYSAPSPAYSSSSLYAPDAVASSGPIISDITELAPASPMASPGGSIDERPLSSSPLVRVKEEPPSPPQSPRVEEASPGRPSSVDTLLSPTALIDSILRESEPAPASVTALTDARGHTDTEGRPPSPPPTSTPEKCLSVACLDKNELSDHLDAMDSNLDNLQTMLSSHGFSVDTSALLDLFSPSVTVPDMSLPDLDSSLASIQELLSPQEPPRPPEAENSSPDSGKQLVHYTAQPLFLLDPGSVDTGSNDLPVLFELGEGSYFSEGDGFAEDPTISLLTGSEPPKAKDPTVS

NF-κB = settings: at the same concentration (125-500 μM); cited from earlier work

Row | SMILES | IC50 (Sendai virus) [µM] | Concentration able to activate HSF1 and trigger synthesis of HSP70 (HSF1) [µM] | Block of NF-κB activation (NF-κB)
1 | CCCC/C=C\CC1CC=CC1=O (stereo not drawn) [CTC-74, ((Z)-5-Hept-2-enyl)-cyclopent-2-enone] | 1 |  | 
2 | CCCCCC/C=C\CC1CC=CC1=O (stereo not drawn) [CTC-83, ((Z)-5-Non-2-enyl)-cyclopent-2-enone] | 10 |  | 
3 | O=C1C=CCC1 [cyclopent-2-en-1-one] |  | 125 to 500 | able to block NF-κB activation

Now from value to molecule, other results behind:

Row | IC50 (Sendai virus) [µM] | SMILES | Concentration able to activate HSF1 and trigger synthesis of HSP70 (HSF1) [µM] | Block of NF-κB activation (NF-κB)
4 | 7 | CCCCCCCCC/C=C\CC1CC=CC1=O (stereo not drawn) [CTC-84, ((Z)-5-Dodec-2-enyl)-cyclopent-2-enone] |  | 
5 | 10 | CCCCCCCCC/C=C/CC1CC=CC1=O (stereo not drawn) [CTC-85, ((E)-5-Dodec-2-enyl)-cyclopent-2-enone] |  | 
